The record followed here is patent US7115635B2, “Benzylpiperidine compound” (Mitsubishi Pharma Corporation, priority 2001, dated 2006).

For one data set, the target named is human eosinophil. In words: Binding inhibitory activity between chemokine ([125I]-eotaxin) and human eosinophil. Particulars: 50 pmol/L [125I]-eotaxin, human eosinophil 2x10^5, 25 C, 1 hr; read-out: IC50 (concentration necessary for decreasing the binding between [125I]-eotaxin and human eosinophil by 50%). The protocol: Human eosinophil was separated from the anticoagulation treated peripheral blood of a healthy subject by CD16 negative selection method (e.g., J. Immunol. Methods, vol., 145, pp. 105–110, 1991). The separated eosinophil (2×10^5), 50 pmol/L [^125I]-eotaxin (2000 Ci/mmoL, manufactured by AmershamPharmacia Biotech) and a test compound were mixed in 0.1 mL of a binding buffer (50 mmol/L HEPES, 1 mmol/L CaCl2, 5 mmol/L MgCl2, 0.5% bovine serum albumin (BSA), 0.1% sodium azide, pH 7.6), and the mixture was incubated at 25° C. for 1 hr in a multiscreen plate (manufactured by Millipore Corporation). After the completion of the incubation, the reaction mixture in the multiscreen plate was filtered in vacuo and washed with 0.6 mL of a cold washing buffer (50 mmol/L HEPES, 1 mmol/L CaCl2, 5 mmol/L MgCl2, 0.5 mol/L NaCl, 0.1% sodium azide, pH 7.6), and the radioactivity on the filter was measured. […] The IC50 values (concentration of a test compound necessary for decreasing the binding between [^125 I]-eotaxin and human eosinophil by 50%) of some of the compounds of the present invention were as follows.

The target in another data set is T1, CCR3 (Homo sapiens, UniProt P51677).
T1 construct: Eosinophil separated from the peripheral blood of a healthy subject; endogenous in cells; host or cells: eosinophils from peripheral blood of a healthy subject
T1 sequence (P51677 1-355): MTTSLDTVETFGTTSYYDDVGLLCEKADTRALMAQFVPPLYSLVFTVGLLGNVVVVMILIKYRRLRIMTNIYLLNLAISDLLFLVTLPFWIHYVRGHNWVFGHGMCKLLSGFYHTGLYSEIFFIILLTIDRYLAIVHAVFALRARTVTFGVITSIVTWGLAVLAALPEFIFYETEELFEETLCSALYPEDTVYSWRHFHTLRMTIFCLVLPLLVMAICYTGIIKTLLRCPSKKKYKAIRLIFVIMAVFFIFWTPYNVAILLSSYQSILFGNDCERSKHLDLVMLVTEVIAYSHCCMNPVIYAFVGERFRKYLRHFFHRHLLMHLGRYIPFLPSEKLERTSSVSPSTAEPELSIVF
In words: Effect on intracellular calcium concentration in eosinophil on stimulation with CCL11. The data set is classed as cell-based. Conditions: human peripheral blood eosinophil, agonist CCL11 0.3 nmol/L, compound 5 min before stimulation, Fura-2 AM; read-out: IC50 of the increase in the intracellular calcium concentration. The protocol: The effect of the compound of the present invention on intracellular calcium in eosinophil in the peripheral blood of a healthy subject on stimulation with CCL11 was elavuated by the following method.
Eosinophil separated from the peripheral blood of a healthy subject was suspended in a buffer for measurement (10 mmol/L HEPES, and 0.5% bovine serum albumin-containing hanks' balanced salt solution), and the suspension was incubated in the presence of 5 μmol/L of Fura-2 AM (manufactured by Dojindo Laboratories) at 37° C. for 45 min. After the completion of incubation, the cells were washed three times with the buffer for measurement to remove Fura-2 AM not-incorporated into the cells.
The cell suspension was adjusted to the final concentration of 1×10^6 cells/mL with the buffer for measurement and preserved in a dark place until measurement. The intracellular calcium was measured using FDSS6000 manufactured by Hamamatsu Photonics K.K. That is, a cell suspension (0.1 mL) loaded with Fura-2 AM was placed in a 96 well plate for measurement, and the plate was set on FDSS6000. The fluorescence intensities due to excitation lights at wavelengths 340 nm and 380 nm were measured. The ratio of the fluorescence intensities corresponding to the excitation lights at these two wavelengths was determined to calculate the intracellular calcium concentration. […]
(In general: Calcium flux is commonly read through the fluorescence of an indicator in the cells.)

Data set [1] in a line: Measurement of blood (plasma) concentration. The data set is classed as in vivo. Particulars: female rat, LC/MS, administered orally and intravenously (route and dose for Cmax not stated). The protocol: The compound of the present invention was administered orally and intravenously to female rat, and the plasma concentration of the compound was measured. That is, the test compound was weighed, dissolved or suspended in a medium, diluted to the objective concentration, and orally and intravenously administered. After the administration, the blood was drawn with time from the cervical vein with a heparin treated syringe. The blood was centrifuged, the plasma was separated, and the plasma was preserved at −20° C. until analysis. The concentration of the compound in plasma was measured using LC/MS. The results are shown in the following [Table 3].

Counter-ions that a name gives are not always drawn.

On to `N=C(N)Nc1nc(-c2ccc(CCCCC(=O)NC3CCN(Cc4ccc(Cl)c(Cl)c4)CC3)cc2)cs1` [Example 1, N-[1-(3,4-dichlorobenzyl)piperidin-4-yl]-5-[4-(2-guanidinothiazol-4-yl)phenyl]valeramide], for which the IC50 at human eosinophil was determined as 6 nM.

`Nc1ccc(-c2csc(SCC(=O)NC3CCN(Cc4ccc(Cl)c(Cl)c4)CC3)n2)cc1` [Example 6, [4-(4-aminophenyl)thiazol-2-ylthio]-N-[1-(3,4-dichlorobenzyl)piperidin-4-yl]acetamide]: on human eosinophil, the IC50 was 11 nM.

Take `N=C(N)Nc1nc(-c2ccc(OCCCC(=O)NC3CCN(Cc4ccc(Cl)c(Cl)c4)CC3)cc2)cs1` [Example 9, N-[1-(3,4-dichlorobenzyl)piperidin-4-yl]-4-[4-(2-guanidinothiazol-4-yl)phenyloxy]butylamide ½ fumarate ¼ hydrate]: the IC50 at human eosinophil was 4 nM; on CCR3, 6 nM.

Broadly, the Cmax is the peak of the concentration-time curve. As for `Nc1cccc(-c2csc(SCC(=O)NC3CCN(Cc4ccc(Cl)c(Cl)c4)CC3)n2)c1` [Example 35, [4-(3-aminophenyl)thiazol-2-ylthio]-N-[1-(3,4-dichlorobenzyl)piperidin-4-yl]acetamide], the concentration in data set [1] peaked (Cmax) at 3120 ng/mL.
